Measurements published in ChEMBL document CHEMBL3853285, “Naturally Occurring Carbazole Alkaloids from Murraya koenigii as Potential Antidiabetic Agents” (J Nat Prod, 2016).
Calls of active or inactive are those of the source. The calls are words filed in the database; no cut-off is given here.

Tests used:
[1] = organism: Rattus norvegicus; assay: Induction of Akt phosphorylation at Ser-473 residue in rat L6 myotubes over-expressing myc-tagged GLUT4 at 25 uM incubated for 16 hrs by Western blot analysis
[2] = Activation of Akt-dependent signalling pathway in rat L6 myotubes assessed as increase in insulin-stimulated myc-tagged GLUT4-mediated 2-[3H]-deoxyglucose uptake at 25 uM incubated for 16 hrs followed by insulin stimulation for 20 mins measured for 5 mins by beta scintillation counting method relative to control
[3] = organism: Rattus norvegicus; assay: Induction of Akt phosphorylation at Ser-473 residue in rat L6 myotubes over-expressing myc-tagged GLUT4 at 50 uM incubated for 16 hrs followed by insulin stimulation for 20 mins by Western blot analysis
[4] = tested on: Mus musculus; assay: Antidiabetic activity in leptin receptor deficient db/db C57BL/KSJ mouse assessed as decrease in postprandial blood glucose level at 30 mg/kg, po for 15 consecutive days measured on day 8 post dose; type: functional, organism-based
[5] = tested on: Mus musculus; assay: Reversal of insulin resistance in leptin receptor deficient db/db C57BL/KSJ mouse assessed as improvement in HOMA index administered for 15 consecutive days relative to control; type: functional
[6] = AUC (0 to infinity) in Sprague-Dawley rat plasma at 100 mg/kg, po administered as single dose measured up to 48 hrs post dose by LC-MS/MS analysis; type: ADME, organism-based; design: dose 100 mg/kg, route oral, time infinity
[7] = Activation of Akt-dependent signalling pathway in rat L6 myotubes assessed as increase in myc-tagged GLUT4-mediated 2-[3H]-deoxyglucose uptake incubated for 16 hrs measured for 5 mins by beta scintillation counting
[8] = tested on: Rattus norvegicus; assay: Antidiabetic activity in overnight fasted STZ-induced albino Sprague-Dawley rat diabetic model assessed as decrease in blood glucose level at 100 mg/kg, po measured up to 5 hrs; type: functional
[9] = Activation of Akt-dependent signalling pathway in rat L6 myotubes assessed as increase in myc-tagged GLUT4-mediated 2-[3H]-deoxyglucose uptake at 25 uM incubated for 16 hrs measured for 5 mins by beta scintillation counting relative to control
[10] = tested on: Mus musculus; assay: Antidiabetic activity in overnight fasted leptin receptor deficient db/db C57BL/KSJ mouse assessed as reduction in postprandial blood glucose AUC at 30 mg/kg, po administered on day 10 post glucose challenge measured up to 120 mins by oral glucose tolerance test relative to control; type: functional
[11] = Cmax in Sprague-Dawley rat plasma at 100 mg/kg, po administered as single dose measured up to 48 hrs post dose by LC-MS/MS analysis; type: ADME, organism-based; design: dose 100 mg/kg, route oral
[12] = Activation of Akt-dependent signalling pathway in rat L6 myotubes assessed as induction of myc-tagged GLUT4 translocation to cell surface at 25 uM incubated for 16 hrs by O-phenylenediamide based colorimetric assay relative to control
[13] = tested on: Mus musculus; assay: Antidiabetic activity in overnight fasted leptin receptor deficient db/db C57BL/KSJ mouse assessed as reduction in postprandial blood glucose AUC at 30 mg/kg, po administered on day 15 post glucose challenge measured up to 120 mins by oral glucose tolerance test relative to control; type: functional
[14] = tested on: Rattus norvegicus; assay: Antidiabetic activity in overnight fasted STZ-induced albino Sprague-Dawley rat diabetic model assessed as decrease in blood glucose level at 100 mg/kg, po measured up to 24 hrs; type: functional
[15] = tested on: Mus musculus; assay: Reversal of insulin resistance in leptin receptor deficient db/db C57BL/KSJ mouse assessed as decrease in serum insulin level administered for 15 consecutive days relative to control; type: functional
[16] = Tmax in Sprague-Dawley rat plasma at 100 mg/kg, po administered as single dose by LC-MS/MS analysis; type: ADME, organism-based
[17] = Half life in rat liver microsomes in presence of NADPH by HPLC analysis; type: ADME; conditions: for half-life: liver microsomes
[18] = tested on: Mus musculus; assay: Antidiabetic activity in leptin receptor deficient db/db C57BL/KSJ mouse assessed as decrease in fasting blood glucose level administered for 15 consecutive days relative to control; type: functional
[19] = Metabolic stability in rat liver microsomes assessed as parent compound remaining after 90 mins in presence of NADPH by HPLC analysis; type: ADME; conditions: for remaining at 1.5 h: liver microsomes, read-out: Stability
[20] = Metabolic stability in rat liver microsomes assessed as drug degradation rate constant incubated for 90 mins by HPLC analysis; type: ADME; conditions: 1.5 h
[21] = Activation of Akt-dependent signaling pathway in rat L6 myotubes assessed as increase in myc-tagged GLUT4-mediated 2-[3H]-deoxyglucose uptake at 10 uM incubated for 16 hrs measured for 5 mins by beta scintillation counting method relative to control
[22] = Activation of Akt-dependent signalling pathway in rat L6 myotubes assessed as induction of myc-tagged GLUT4 translocation to cell surface at 10 uM incubated for 16 hrs by O-phenylenediamide based colorimetric assay relative to control
[23] = tested on: Mus musculus; assay: Antidiabetic activity in overnight fasted leptin receptor deficient db/db C57BL/KSJ mouse assessed as reduction in postprandial blood glucose AUC at 10 mg/kg, po administered on day 10 post glucose challenge measured up to 120 mins by oral glucose tolerance test relative to control; type: functional
[24] = tested on: Mus musculus; assay: Antidiabetic activity in leptin receptor deficient db/db C57BL/KSJ mouse assessed as decrease in postprandial blood glucose level at 10 mg/kg, po for 15 consecutive days measured on day 7 to 14 post dose; type: functional, organism-based
[25] = tested on: Mus musculus; assay: Antidiabetic activity in overnight fasted leptin receptor deficient db/db C57BL/KSJ mouse assessed as reduction in postprandial blood glucose AUC at 10 mg/kg, po administered on day 15 post glucose challenge measured up to 120 mins by oral glucose tolerance test relative to control; type: functional

fold change (FC) [2]	Activity [7]	fold change (FC) [9]	fold change (FC) [12]	half-life [17] [h]	remaining at 1.5 h [19] [%]	K [20] [min⁻¹]	Structure (SMILES)	inhibition in vivo at 100 mg/kg [8] [%]	inhibition in vivo at 100 mg/kg [14] [%]	other results
2.41	Dose-dependent effect	1.42	1.29	3.11	79	0.003	COc1cc2[nH]c3c4c(c(C)cc3c2cc1OC)OC(C)(C)C=C4	22.5	30	Activity [1]: Active; Activity [3]: Active; inhibition [4]: Active; Activity [5]: 44.3%; AUC(0-inf) [6]: 23 µM·h; inhibition in vivo at 30 mg/kg [10]: 21.8%; Cmax [11]: 2820 nM; inhibition in vivo at 30 mg/kg [13]: 28.5%; inhibition (INH) [15]: 17.2%; Tmax [16]: 4 h; inhibition (INH) [18]: 40.5%
2.75	Dose-dependent effect						CN(CCOc1ccc(CC2SC(=O)NC2=O)cc1)c1ccccn1 (configuration not stated)			fold change (FC) [21]: 1.45; fold change (FC) [22]: 1.38
2.54	Dose-dependent effect	1.41	1.44	2.21	58	0.005	COc1ccc2[nH]c3c4c(c(C)cc3c2c1)OC(C)(C)C=C4 [KOENIMBINE]	15.5	19.8	AUC(0-inf) [6]: 9.45 µM·h; Cmax [11]: 1810 nM; Tmax [16]: 0.83 h

Continued, compound first:

Structure (SMILES)	fold change (FC) [2]	Activity [7]	fold change (FC) [9]	fold change (FC) [12]	half-life [17] [h]	remaining at 1.5 h [19] [%]	K [20] [min⁻¹]	inhibition in vivo at 100 mg/kg [8] [%]	inhibition in vivo at 100 mg/kg [14] [%]	other results
CN(C)C(=N)NC(=N)N [METFORMIN]								25.9	36	
CCc1ccc(CCOc2ccc(CC3SC(=O)NC3=O)cc2)nc1 (configuration not stated) [PIOGLITAZONE]										Activity [5]: 74.6%; inhibition in vivo at 10 mg/kg [23]: 30.2%; inhibition [24]: Active; inhibition (INH) [15]: 32.3%; inhibition (INH) [18]: 62.4%; inhibition in vivo at 10 mg/kg [25]: 41.4%
COc1ccc2c(c1)[nH]c1c3c(c(C)cc12)OC(C)(C)C=C3	2.7	Dose-dependent effect	1.34	1.33	2.83	67	0.004	24.6	30.3	
CC(C)=CCC[C@]1(C)C=Cc2c(c(C)cc3c2[nH]c2ccccc23)O1	2.68	Dose-dependent effect	1.26	1.41			0.088	19.3	23.3	t1/2 ([17]; microsomes): 7.8 min; Stability ([19]; microsomes, 1.5 h): 61%
